Laboratory results as given in ChEMBL document CHEMBL5291721, “A preclinical secondary pharmacology resource illuminates target-adverse drug reaction associations of marketed drugs” (Nat Commun, 2023).

Columns and labels:
Adenosine receptor A3 = target: T1, Adenosine receptor A3 (Homo sapiens, UniProt P0DMS8)
T1 sequence (P0DMS8 whole entry): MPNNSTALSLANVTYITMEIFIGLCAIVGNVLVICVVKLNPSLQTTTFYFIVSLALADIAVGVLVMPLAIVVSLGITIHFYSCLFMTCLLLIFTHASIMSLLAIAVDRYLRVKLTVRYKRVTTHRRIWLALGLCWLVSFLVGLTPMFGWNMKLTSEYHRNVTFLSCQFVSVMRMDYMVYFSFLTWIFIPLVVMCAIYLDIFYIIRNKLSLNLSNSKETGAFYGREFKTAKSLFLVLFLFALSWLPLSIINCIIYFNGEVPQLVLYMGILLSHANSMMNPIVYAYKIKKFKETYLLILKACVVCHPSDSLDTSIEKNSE

[1] = target: T2, Type-1 angiotensin II receptor (Homo sapiens, UniProt P30556)
T2 sequence (P30556 whole entry): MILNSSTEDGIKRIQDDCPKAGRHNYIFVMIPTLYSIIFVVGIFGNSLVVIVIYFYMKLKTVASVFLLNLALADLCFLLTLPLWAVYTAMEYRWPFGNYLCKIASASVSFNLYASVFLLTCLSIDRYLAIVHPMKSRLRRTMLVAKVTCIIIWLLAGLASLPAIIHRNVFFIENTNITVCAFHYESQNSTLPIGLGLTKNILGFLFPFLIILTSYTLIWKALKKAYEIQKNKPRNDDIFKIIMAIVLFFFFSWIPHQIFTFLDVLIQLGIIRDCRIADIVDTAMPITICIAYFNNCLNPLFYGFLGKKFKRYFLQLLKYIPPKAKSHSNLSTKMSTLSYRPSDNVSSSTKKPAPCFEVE

[2] = target: T3, Muscarinic acetylcholine receptor M2 (Homo sapiens, UniProt P08172)
T3 sequence (P08172 whole entry): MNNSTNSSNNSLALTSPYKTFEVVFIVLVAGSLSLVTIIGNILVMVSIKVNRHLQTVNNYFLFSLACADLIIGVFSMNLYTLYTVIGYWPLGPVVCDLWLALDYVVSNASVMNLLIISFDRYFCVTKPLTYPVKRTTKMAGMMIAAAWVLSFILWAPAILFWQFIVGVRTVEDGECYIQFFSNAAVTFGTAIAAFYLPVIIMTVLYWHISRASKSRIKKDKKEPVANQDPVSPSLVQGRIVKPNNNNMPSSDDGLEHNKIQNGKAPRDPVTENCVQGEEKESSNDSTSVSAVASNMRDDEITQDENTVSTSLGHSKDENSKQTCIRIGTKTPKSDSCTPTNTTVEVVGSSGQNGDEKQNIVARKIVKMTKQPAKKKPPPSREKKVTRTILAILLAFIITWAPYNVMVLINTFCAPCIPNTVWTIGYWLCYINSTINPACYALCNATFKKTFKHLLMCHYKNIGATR

[3] = target: Growth hormone secretagogue receptor type 1 (Homo sapiens, UniProt Q92847)
Chain of Growth hormone secretagogue receptor type 1 (Q92847 whole entry): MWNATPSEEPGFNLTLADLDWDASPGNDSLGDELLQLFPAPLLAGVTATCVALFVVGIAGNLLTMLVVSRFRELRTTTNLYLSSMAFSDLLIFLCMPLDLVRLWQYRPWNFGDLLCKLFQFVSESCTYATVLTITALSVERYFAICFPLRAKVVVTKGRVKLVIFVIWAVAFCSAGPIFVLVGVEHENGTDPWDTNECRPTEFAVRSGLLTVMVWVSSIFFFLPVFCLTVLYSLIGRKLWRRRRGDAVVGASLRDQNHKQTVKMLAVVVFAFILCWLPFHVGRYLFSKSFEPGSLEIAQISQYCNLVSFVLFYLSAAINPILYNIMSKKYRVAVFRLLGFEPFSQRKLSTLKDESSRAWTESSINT

[4] = target: T4, 5-hydroxytryptamine receptor 1A (Homo sapiens, UniProt P08908); type: functional, cell-based
T4 sequence (P08908 whole entry): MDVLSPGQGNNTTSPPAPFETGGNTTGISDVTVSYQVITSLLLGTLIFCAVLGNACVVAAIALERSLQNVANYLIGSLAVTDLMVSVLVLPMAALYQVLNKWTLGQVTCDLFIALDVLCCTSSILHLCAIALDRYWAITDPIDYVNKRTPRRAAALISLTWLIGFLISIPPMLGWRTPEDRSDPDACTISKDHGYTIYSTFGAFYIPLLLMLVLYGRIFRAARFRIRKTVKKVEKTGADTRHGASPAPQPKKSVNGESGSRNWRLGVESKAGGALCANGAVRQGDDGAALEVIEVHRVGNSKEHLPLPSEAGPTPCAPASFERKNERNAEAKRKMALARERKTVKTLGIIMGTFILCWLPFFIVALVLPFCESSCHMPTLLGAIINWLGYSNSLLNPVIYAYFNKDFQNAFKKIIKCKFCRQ

[5] = target: 5-hydroxytryptamine receptor 2B (Homo sapiens, UniProt P41595); type: functional, cell-based
Chain of 5-hydroxytryptamine receptor 2B (P41595 whole entry): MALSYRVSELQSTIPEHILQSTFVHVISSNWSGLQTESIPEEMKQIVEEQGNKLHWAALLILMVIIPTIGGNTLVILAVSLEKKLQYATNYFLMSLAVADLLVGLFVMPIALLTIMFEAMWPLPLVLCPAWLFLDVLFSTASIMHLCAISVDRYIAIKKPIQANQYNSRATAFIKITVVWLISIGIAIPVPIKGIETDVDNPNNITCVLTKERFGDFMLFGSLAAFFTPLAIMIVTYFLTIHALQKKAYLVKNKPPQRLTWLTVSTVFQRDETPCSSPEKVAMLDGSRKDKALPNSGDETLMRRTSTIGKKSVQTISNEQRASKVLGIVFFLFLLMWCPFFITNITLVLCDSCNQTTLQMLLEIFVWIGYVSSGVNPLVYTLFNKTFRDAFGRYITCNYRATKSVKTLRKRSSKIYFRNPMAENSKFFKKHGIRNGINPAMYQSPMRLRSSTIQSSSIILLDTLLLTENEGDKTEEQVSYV

[6] = target: Delta-type opioid receptor (Homo sapiens, UniProt P41143)
Chain of Delta-type opioid receptor (P41143 whole entry): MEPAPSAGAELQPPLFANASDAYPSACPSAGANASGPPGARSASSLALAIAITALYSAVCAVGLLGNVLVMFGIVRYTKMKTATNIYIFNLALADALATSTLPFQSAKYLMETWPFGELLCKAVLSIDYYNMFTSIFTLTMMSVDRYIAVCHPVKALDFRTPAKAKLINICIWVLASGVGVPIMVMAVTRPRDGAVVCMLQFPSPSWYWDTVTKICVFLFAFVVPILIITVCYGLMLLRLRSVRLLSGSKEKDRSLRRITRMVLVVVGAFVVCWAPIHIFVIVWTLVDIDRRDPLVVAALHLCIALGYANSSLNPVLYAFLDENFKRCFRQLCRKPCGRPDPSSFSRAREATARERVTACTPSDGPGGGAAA

[7] = target: T5, Prostaglandin G/H synthase 1 (Rattus norvegicus, UniProt Q63921); type: functional
T5 sequence (Q63921 whole entry): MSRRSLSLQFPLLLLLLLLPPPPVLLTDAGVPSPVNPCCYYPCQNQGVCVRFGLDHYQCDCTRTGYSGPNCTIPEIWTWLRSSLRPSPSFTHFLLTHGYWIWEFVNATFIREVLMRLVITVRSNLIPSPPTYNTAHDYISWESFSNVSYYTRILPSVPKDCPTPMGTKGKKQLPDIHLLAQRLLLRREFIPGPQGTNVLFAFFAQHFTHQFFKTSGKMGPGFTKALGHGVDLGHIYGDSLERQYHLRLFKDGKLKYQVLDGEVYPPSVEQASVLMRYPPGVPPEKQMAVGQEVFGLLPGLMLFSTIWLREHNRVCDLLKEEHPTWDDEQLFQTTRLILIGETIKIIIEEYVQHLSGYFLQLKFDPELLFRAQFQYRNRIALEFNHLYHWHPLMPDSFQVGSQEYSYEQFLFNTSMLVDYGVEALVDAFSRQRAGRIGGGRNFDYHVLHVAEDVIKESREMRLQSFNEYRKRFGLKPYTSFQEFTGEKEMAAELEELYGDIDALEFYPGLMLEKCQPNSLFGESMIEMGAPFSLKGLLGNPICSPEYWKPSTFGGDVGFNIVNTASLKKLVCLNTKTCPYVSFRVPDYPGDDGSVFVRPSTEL

[8] = target: Sodium-dependent dopamine transporter (Homo sapiens, UniProt Q01959)
Chain of Sodium-dependent dopamine transporter (Q01959 whole entry): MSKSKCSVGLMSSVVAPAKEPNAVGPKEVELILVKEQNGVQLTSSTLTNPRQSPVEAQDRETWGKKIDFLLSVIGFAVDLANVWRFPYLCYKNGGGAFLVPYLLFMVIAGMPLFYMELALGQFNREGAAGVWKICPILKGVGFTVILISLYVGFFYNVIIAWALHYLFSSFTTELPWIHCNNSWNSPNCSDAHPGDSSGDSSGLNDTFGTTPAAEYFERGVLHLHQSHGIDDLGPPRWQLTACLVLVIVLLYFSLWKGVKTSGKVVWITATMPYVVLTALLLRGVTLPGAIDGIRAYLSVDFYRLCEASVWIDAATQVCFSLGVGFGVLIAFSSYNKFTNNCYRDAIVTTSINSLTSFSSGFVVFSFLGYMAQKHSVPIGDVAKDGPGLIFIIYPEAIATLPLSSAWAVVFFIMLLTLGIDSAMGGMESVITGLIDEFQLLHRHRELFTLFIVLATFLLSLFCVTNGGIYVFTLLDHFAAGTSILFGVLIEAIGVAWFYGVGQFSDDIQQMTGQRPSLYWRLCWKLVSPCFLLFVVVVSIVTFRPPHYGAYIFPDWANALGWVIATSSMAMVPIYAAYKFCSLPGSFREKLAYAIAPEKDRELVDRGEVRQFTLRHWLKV

Thromboxane A2 receptor = target: T6, Thromboxane A2 receptor (Homo sapiens, UniProt P21731); type: functional, cell-based
T6 sequence (P21731 whole entry): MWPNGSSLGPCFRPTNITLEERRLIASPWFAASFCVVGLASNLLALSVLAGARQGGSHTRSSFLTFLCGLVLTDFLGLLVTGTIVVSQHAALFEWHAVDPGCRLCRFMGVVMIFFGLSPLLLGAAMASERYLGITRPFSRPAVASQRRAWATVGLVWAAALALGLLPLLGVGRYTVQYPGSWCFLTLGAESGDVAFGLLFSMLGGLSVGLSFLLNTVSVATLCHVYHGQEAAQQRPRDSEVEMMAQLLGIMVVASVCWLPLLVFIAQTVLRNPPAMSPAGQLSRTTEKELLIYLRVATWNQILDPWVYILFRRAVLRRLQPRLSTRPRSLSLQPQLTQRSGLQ

Mu-type opioid receptor = Mu-type opioid receptor (Homo sapiens, UniProt P35372)
Chain of Mu-type opioid receptor (P35372 whole entry): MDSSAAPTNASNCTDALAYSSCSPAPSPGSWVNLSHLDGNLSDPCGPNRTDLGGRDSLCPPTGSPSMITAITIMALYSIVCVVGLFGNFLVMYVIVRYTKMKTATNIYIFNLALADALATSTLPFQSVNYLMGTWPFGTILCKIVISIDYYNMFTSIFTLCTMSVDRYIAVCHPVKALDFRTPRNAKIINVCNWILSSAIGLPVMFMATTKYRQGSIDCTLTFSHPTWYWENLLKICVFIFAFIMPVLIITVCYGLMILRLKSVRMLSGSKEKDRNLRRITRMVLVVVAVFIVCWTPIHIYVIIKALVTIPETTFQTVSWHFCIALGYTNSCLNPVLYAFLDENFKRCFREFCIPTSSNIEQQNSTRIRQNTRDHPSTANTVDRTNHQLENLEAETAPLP

[9] = target: Gamma-aminobutyric acid receptor subunit alpha-1/alpha-2/beta-2/gamma-2 (Homo sapiens, UniProt P14867+P18507+P47869+P47870); type: protein-complex assay
Chain of Gamma-aminobutyric acid receptor subunit alpha-1/alpha-2/beta-2/gamma-2 (P14867 whole entry): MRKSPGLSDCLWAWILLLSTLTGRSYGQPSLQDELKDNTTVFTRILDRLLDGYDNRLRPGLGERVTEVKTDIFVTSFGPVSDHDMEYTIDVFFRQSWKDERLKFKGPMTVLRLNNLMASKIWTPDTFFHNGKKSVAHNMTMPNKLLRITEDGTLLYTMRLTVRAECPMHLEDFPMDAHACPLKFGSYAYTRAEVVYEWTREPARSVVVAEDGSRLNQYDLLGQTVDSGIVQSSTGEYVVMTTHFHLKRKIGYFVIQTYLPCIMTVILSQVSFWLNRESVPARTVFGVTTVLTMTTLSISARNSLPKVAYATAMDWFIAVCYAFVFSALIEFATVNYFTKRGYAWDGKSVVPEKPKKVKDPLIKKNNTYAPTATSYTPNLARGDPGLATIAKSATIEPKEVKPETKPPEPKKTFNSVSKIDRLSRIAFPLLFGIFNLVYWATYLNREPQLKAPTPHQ
Chain of Gamma-aminobutyric acid receptor subunit alpha-1/alpha-2/beta-2/gamma-2 (P47870 whole entry): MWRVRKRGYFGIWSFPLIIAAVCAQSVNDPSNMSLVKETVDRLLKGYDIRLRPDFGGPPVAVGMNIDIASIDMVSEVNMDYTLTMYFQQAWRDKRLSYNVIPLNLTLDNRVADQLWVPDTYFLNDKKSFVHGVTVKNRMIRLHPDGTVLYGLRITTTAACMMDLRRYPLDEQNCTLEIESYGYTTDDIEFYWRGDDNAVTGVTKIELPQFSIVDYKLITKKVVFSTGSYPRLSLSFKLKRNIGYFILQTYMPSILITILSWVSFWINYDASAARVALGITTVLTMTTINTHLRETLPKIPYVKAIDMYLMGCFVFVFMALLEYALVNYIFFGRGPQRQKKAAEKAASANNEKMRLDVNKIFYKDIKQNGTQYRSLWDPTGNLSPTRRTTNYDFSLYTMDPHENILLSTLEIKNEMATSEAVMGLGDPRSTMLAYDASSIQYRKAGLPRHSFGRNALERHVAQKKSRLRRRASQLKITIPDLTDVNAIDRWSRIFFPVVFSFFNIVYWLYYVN
Chain of Gamma-aminobutyric acid receptor subunit alpha-1/alpha-2/beta-2/gamma-2 (P18507 whole entry): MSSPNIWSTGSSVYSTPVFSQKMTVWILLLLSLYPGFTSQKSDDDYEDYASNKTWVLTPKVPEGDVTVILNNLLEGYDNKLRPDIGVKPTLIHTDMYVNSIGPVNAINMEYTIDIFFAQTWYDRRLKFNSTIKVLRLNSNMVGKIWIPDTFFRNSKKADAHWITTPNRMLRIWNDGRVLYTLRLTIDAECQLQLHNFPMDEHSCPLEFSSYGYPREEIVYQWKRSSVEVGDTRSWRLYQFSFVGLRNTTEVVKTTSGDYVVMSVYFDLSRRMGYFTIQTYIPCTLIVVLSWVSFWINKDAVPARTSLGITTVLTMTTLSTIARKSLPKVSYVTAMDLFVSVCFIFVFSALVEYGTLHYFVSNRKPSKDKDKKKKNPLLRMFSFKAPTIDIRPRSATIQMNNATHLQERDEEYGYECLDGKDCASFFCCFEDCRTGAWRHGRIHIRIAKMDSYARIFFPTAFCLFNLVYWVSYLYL
Chain of Gamma-aminobutyric acid receptor subunit alpha-1/alpha-2/beta-2/gamma-2 (P47869 whole entry): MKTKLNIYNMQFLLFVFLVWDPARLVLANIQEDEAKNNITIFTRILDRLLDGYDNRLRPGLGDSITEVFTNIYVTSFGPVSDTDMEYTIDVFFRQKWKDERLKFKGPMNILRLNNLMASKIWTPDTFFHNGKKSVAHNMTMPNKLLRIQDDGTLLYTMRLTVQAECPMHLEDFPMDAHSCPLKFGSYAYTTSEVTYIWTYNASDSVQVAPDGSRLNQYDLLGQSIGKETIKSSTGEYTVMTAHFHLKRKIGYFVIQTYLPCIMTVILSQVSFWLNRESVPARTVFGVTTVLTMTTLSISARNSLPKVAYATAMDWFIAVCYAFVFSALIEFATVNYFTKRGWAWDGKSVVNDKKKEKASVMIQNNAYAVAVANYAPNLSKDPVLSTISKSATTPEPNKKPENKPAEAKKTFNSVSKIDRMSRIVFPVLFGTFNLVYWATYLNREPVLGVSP

Measured: AC50
Further: assay procedure not described here.

C[C@H]1O[C@H](O[C@H]2[C@H](O)[C@@H](O)[C@@H](O[C@H]3[C@H](O)[C@@H](O)C(O)O[C@@H]3CO)O[C@@H]2CO)[C@H](O)[C@@H](O)[C@@H]1N[C@H]1C=C(CO)[C@@H](O)[C@H](O)[C@H]1O (stereo not given in full) [ACARBOSE]
> 10 µM: [6] | Mu-type opioid receptor
> 30 µM: Adenosine receptor A3 | [1] | [2] | [3] | [4] | [5] | [7] | [8] | Thromboxane A2 receptor

CCO/N=C(\C(=O)N[C@@H]1C(=O)N2C(C(=O)[O-])=C(Sc3nc(-c4cc[n+](C)cc4)cs3)CS[C@H]12)c1nsc(N)n1 [CEFTAROLINE]
> 30 µM: [2] | [9] | [8] | Thromboxane A2 receptor

Cc1cc(O)cc(C)c1Cl [CHLOROXYLENOL]
> 30 µM: [2] | [9] | [8] | Thromboxane A2 receptor

C[N+](C)(C)CCCCCCCCCC[N+](C)(C)C [DECAMETHONIUM]
> 30 µM: [2] | [9] | [8] | Thromboxane A2 receptor

C#C[C@]1(O)CC[C@H]2[C@@H]3CCc4cc(O)ccc4[C@H]3CC[C@@]21C [ETHINYL ESTRADIOL]
> 10 µM: [5]
13.5 µM: Adenosine receptor A3
5.7 µM: [4]
24.3 µM: [7]
0.8 µM: [8]
> 30 µM: [1] | [2] | [3] | [6] | Thromboxane A2 receptor | Mu-type opioid receptor

CCOC(=O)c1ccc(O)cc1 [ETHYLPARABEN]
> 30 µM: [2] | [9] | [8] | Thromboxane A2 receptor

O=C1[C@H](CC[C@H](O)c2ccc(F)cc2)[C@@H](c2ccc(O)cc2)N1c1ccc(F)cc1 [EZETIMIBE]
> 10 µM: [9]
> 30 µM: [2] | Thromboxane A2 receptor
19.5 µM: [8]

O=C(COc1ccc(Cl)cc1)N1CCN(Cc2ccc3c(c2)OCO3)CC1 [FIPEXIDE]
12.9 µM: [8]
> 30 µM: [2] | [9] | Thromboxane A2 receptor

Cc1c(-c2ccccc2)oc2c(C(=O)OCCN3CCCCC3)cccc2c1=O [FLAVOXATE]
3.39 µM: [2]
> 30 µM: [9] | [8] | Thromboxane A2 receptor

CCC(=O)c1c(O)cc(O)cc1O [FLOPROPIONE]
> 30 µM: [2] | [9] | [8] | Thromboxane A2 receptor

CC1(C)O[C@@H]2C[C@H]3[C@@H]4C[C@H](F)C5=CC(=O)CC[C@]5(C)[C@H]4[C@@H](O)C[C@]3(C)[C@]2(C(=O)CO)O1 [FLURANDRENOLIDE]
> 30 µM: [2] | [9] | [8] | Thromboxane A2 receptor

C#C[C@]1(O)CC[C@H]2[C@@H]3CCC4=CC(=O)CC[C@@H]4[C@H]3CC[C@@]21CC [LEVONORGESTREL]
> 30 µM: [2] | [9] | [8] | Thromboxane A2 receptor

OC[C@@H](O)[C@@H](O)[C@H](O)[C@H](O)CO [MANNITOL]
> 30 µM: [2] | [9] | [8] | Thromboxane A2 receptor

Sc1ncnc2nc[nH]c12 [MERCAPTOPURINE ANHYDROUS]
> 30 µM: [2] | [9] | [8] | Thromboxane A2 receptor

C[N+]1(C)[C@@H]2C[C@@H](OC(=O)[C@H](CO)c3ccccc3)C[C@H]1[C@@H]1O[C@@H]12 [METHSCOPOLAMINE]
> 30 µM: [9] | [8] | Thromboxane A2 receptor

CC(=O)Oc1c(C)cc(OCC(O)CNC(C)C)c(C)c1C (stereo not given) [METIPRANOLOL]
> 30 µM: [2] | [9] | [8] | Thromboxane A2 receptor

O=C1CC[C@@]2(O)[C@H]3Cc4ccc(O)c5c4[C@@]2(CCN3CC2CC2)[C@H]1O5 [NALTREXONE]
> 30 µM: [2] | [9] | [8] | Thromboxane A2 receptor

CC(N/C(=N\C#N)Nc1ccncc1)C(C)(C)C (stereo not given) [PINACIDIL ANHYDROUS]
> 30 µM: [2] | [9] | [8] | Thromboxane A2 receptor

CCc1ccc(CCOc2ccc(CC3SC(=O)NC3=O)cc2)nc1 (stereo not given) [PIOGLITAZONE]
> 10 µM: [4] | [5] | [6] | Mu-type opioid receptor
> 30 µM: Adenosine receptor A3 | [1] | [2] | [3] | [7] | [8] | Thromboxane A2 receptor

CC(O)CO (stereo not given) [PROPYLENE GLYCOL]
> 30 µM: [2] | [9] | [8] | Thromboxane A2 receptor

CN(C)C(=O)Oc1ccc[n+](C)c1 [PYRIDOSTIGMINE]
> 30 µM: [2] | [9] | [8] | Thromboxane A2 receptor

O=C(NC[C@H]1CN(c2ccc(N3CCOCC3=O)cc2)C(=O)O1)c1ccc(Cl)s1 [RIVAROXABAN]
> 30 µM: Adenosine receptor A3 | [2] | [4] | [5] | [6] | [7] | [8] | Thromboxane A2 receptor | Mu-type opioid receptor

CC(C)OC(=O)[C@H](C)N[P@](=O)(OC[C@H]1O[C@@H](n2ccc(=O)[nH]c2=O)[C@](C)(F)[C@@H]1O)Oc1ccccc1 [SOFOSBUVIR]
> 30 µM: [2] | [9] | [8] | Thromboxane A2 receptor

O=C(CCCCCCC(=O)Nc1ccccc1)NO [VORINOSTAT]
> 30 µM: Adenosine receptor A3 | [1] | [3] | [4] | [5] | [6] | [7] | Mu-type opioid receptor
